The values that follow come from patent US20160002204A1 (Board of Regents, The University of Texas System, priority 2014, published 2016).

The subject of one assay is A549 cells. As to the kind of experiment: A549 proliferation (viability) assay, Cell Titer Fluor, 72 hours. Conditions: Homo sapiens. Type of assay: cell-based. The method, boiled down:
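Compound exposure lasted 72 h (final DMSO 0.5% v/v) on A549 cells plated at 1000 cells/well one day earlier. Cell Titer Fluor added, 30 min at 37 °C, fluorescence read; EC50 derived by four-parameter logistic curve fitting.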

Assay [1] concerns the target T1, GLS1 (purified recombinant human GAC) (Homo sapiens, UniProt O94925).
T1 sequence (O94925 55-598 isoform O94925-3 limits assumed): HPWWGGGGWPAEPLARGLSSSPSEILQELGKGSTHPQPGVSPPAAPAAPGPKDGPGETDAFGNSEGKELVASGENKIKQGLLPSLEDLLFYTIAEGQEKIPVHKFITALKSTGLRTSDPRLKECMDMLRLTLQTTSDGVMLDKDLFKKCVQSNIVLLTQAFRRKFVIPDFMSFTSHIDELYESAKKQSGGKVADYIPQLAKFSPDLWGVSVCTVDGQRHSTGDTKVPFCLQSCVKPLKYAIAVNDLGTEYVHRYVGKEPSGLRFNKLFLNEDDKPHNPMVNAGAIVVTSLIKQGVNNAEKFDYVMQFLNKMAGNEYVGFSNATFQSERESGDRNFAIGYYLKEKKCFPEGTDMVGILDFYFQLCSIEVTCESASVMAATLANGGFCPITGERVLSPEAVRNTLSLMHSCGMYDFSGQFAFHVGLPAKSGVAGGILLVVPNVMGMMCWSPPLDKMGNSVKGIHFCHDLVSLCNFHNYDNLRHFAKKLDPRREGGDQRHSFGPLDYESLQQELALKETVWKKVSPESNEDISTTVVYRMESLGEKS
As to the kind of experiment: GLS1 enzymatic activity assay (dual-coupled, Amplex UltraRed/resorufin). Type of assay: biochemical. The method in brief: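 GAC activity measured by coupling glutamate to glutamate oxidase and HRP, generating resorufin from Amplex UltraRed. Enzyme (2 nM) preincubated with 50 mM potassium phosphate 10 min at room temperature, then inhibitor 10 min; 1 mM glutamine substrate, 1% DMSO. Fluorescence 530/590 nm, kinetic or 20-min endpoint; IC50 from four-parameter logistic fit.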

Regarding `O=C(Nc1ccn(CCC(F)Cn2cc(C(=O)NCc3cc(C(F)(F)F)ccn3)nn2)c(=O)c1F)OC1CCC1` (stereo not drawn) [Example 377, cyclobutyl N-(3-fluoro-1-{3-fluoro-4-[4-({[4-(trifluoromethyl)pyridin-2-yl]methyl}carbamoyl)-1H-1,2,3-triazol-1-yl]butyl}-2-oxo-1,2-dihydropyridin-4-yl)carbamate], the 50% effective concentration (EC50) with A549 cells was less than 100 nM. Also, the IC50 in assay [1] is less than 100 nM.
Consider `O=C(CC1CCCCC1)Nc1ccn(CCC(F)Cn2cc(C(=O)NCc3cccc(C(F)(F)F)n3)nn2)c(=O)c1F` (stereo not drawn) [Example 262, 1-{4-[4-(2-cyclohexylacetamido)-3-fluoro-2-oxo-1,2-dihydropyridin-1-yl]-2-fluorobutyl}-N-{[6-(trifluoromethyl)pyridin-2-yl]methyl}-1H-1,2,3-triazole-4-carboxamide], for which the concentration giving a half-maximal response (EC50) in the assay with A549 cells is less than 100 nM. Besides, in assay [1], the IC50 was less than 100 nM.
Take `O=C(Nc1ccn(CCC(F)Cn2cc(C(=O)NCc3cccc(OC(F)(F)F)c3)nn2)c(=O)n1)OCc1ccccc1` (stereo not drawn) [Example 470, benzyl N-(1-{3-fluoro-4-[4-({[3-(trifluoromethoxy)phenyl]methyl}carbamoyl)-1H-1,2,3-triazol-1-yl]butyl}-2-oxo-1,2-dihydropyrimidin-4-yl)carbamate]: in the assay with A549 cells, the EC50 was less than 100 nM. Also, the concentration for half-maximal inhibition (IC50) in assay [1] is less than 100 nM.
`O=C(Nc1ccn(CCC(F)Cn2cc(C(=O)NCc3cccc(OC(F)(F)F)c3)nn2)c(=O)c1F)c1ccccc1` (stereo not drawn) [Example 353, 1-[4-(4-benzamido-3-fluoro-2-oxo-1,2-dihydropyridin-1-yl)-2-fluorobutyl]-N-{[3-(trifluoromethoxy)phenyl]methyl}-1H-1,2,3-triazole-4-carboxamide] showed a concentration for a half-maximal effect (EC50) with A549 cells of 100 to 500 nM. In assay [1], the IC50 is less than 100 nM.
For `O=C(CN1CCCC(F)C1)Nc1ccn(CC(F)CCn2cc(C(=O)NCc3cccc(OC(F)(F)F)c3)nn2)c(=O)c1` (stereo not drawn) [Example 283, 1-(3-fluoro-4-{4-[2-(3-fluoropiperidin-1-yl)acetamido]-2-oxo-1,2-dihydropyridin-1-yl}butyl)-N-{[3-(trifluoromethoxy)phenyl]methyl}-1H-1,2,3-triazole-4-carboxamide] the same measures were less than 100 nM and less than 100 nM.
For `O=C(Cc1ccccc1F)Nc1ccn(CCC(F)Cn2cc(C(=O)NCc3cncc(C(F)(F)F)c3)nn2)c(=O)c1F` (stereo not drawn) [Example 361, 1-(2-fluoro-4-{3-fluoro-4-[2-(2-fluorophenyl)acetamido]-2-oxo-1,2-dihydropyridin-1-yl}butyl)-N-{[5-(trifluoromethyl)pyridin-3-yl]methyl}-1H-1,2,3-triazole-4-carboxamide] the same measures were less than 100 nM and less than 100 nM.
For `O=C(Cc1ccccc1)Nc1ccn(CCC(F)Cn2cc(C(=O)NCc3cc(OC(F)(F)F)ccc3F)nn2)c(=O)c1` (stereo not drawn) [Example 12, 1-(2-fluoro-4-(2-oxo-4-(2-phenylacetamido)pyridin-1(2H)-yl)butyl)-N-(2-fluoro-5-(trifluoromethoxy)benzyl)-1H-1,2,3-triazole-4-carboxamide] the same measures were less than 100 nM and less than 100 nM.
In the assay with A549 cells, `CC(C)OC(=O)Nc1ccn(CCCCc2ccc(NC(=O)Cc3cccc(OC(F)(F)F)c3)nn2)c(=O)n1` [Example 102, propan-2-yl N-{2-oxo-1-[4-(6-{2-[3-(trifluoromethoxy)phenyl]acetamido}pyridazin-3-yl)butyl]-1,2-dihydropyrimidin-4-yl}carbamate] had a concentration giving a half-maximal response (EC50) of 100 to 500 nM. The IC50 in assay [1] was less than 100 nM.
As for `O=C(NCc1cc(C(F)(F)F)ccn1)c1cn(CC(F)CCn2ccc(Cn3ccccc3=O)cc2=O)nn1` (stereo not drawn) [Example 494, 1-(2-fluoro-4-{2-oxo-4-[(2-oxo-1,2-dihydropyridin-1-yl)methyl]-1,2-dihydropyridin-1-yl}butyl)-N-{[4-(trifluoromethyl)pyridin-2-yl]methyl}-1H-1,2,3-triazole-4-carboxamide], in the assay with A549 cells, the EC50 is more than 5000 nM. For the same compound, the concentration for half-maximal inhibition (IC50) in assay [1] lay in the range of 500 to 5000 nM.
On the same counts, the results for `Cc1ccc(CNC(=O)c2cn(CC(F)CCn3ncc(NC(=O)CC4CCC4)cc3=O)nn2)cn1` (stereo not drawn) [Example 402, 1-{4-[4-(2-cyclobutylacetamido)-6-oxo-1,6-dihydropyridazin-1-yl]-2-fluorobutyl}-N-[(6-methylpyridin-3-yl)methyl]-1H-1,2,3-triazole-4-carboxamide] are 500 to 5000 nM and 100 to 500 nM.
On the same counts, the results for `O=C(CC1CCC(O)CC1)Nc1ccn(CCCCn2cc(C(=O)NCc3cccc(OC(F)(F)F)c3)nn2)c(=O)c1` (stereo not drawn) [Example 208, 1-(4-{4-[2-(4-hydroxycyclohexyl)acetamido]-2-oxo-1,2-dihydropyridin-1-yl}butyl)-N-{[3-(trifluoromethoxy)phenyl]methyl}-1H-1,2,3-triazole-4-carboxamide] are 500 to 5000 nM and less than 100 nM.
For `O=C(Cc1ccccc1)Nc1ccc(CCCCn2ccc(NC(=O)Cc3ccccc3)nc2=O)nn1` [Example 20, N-(2-oxo-1-(4-(6-(2-phenylacetamido)pyridazin-3-yl)butyl)-1,2-dihydropyrimidin-4-yl)-2-phenylacetamide] the same measures were less than 100 nM and less than 100 nM.
Consider `Cc1ccc(CNC(=O)c2nnc(CCCCn3ccc(NC(=O)CC4CCCCC4)cc3=O)s2)cn1` [Example 443, 5-{4-[4-(2-cyclohexylacetamido)-2-oxo-1,2-dihydropyridin-1-yl]butyl}-N-[(6-methylpyridin-3-yl)methyl]-1,3,4-thiadiazole-2-carboxamide], for which, in the assay with A549 cells, the concentration for a half-maximal effect (EC50) is less than 100 nM. The half-inhibitory concentration (IC50) in assay [1] was less than 100 nM.
In turn, `O=C(Cc1cccc(OC(F)(F)F)c1)Nc1ccc(CCCCn2ccc(NC(=O)CCO)nc2=O)nn1` [Example 117, 3-hydroxy-N-{2-oxo-1-[4-(6-{2-[3-(trifluoromethoxy)phenyl]acetamido}pyridazin-3-yl)butyl]-1,2-dihydropyrimidin-4-yl}propanamide] displayed an EC50 in the assay with A549 cells of 500 to 5000 nM. Further, the concentration for half-maximal inhibition (IC50) in assay [1] is less than 100 nM.
On the same counts, the results for `O=C(Cc1cccc(OC(F)(F)F)c1)Nc1ccn(CCCCc2nnc(NC(=O)Cc3ccccc3)s2)c(=O)n1` [Example 19, N-(2-oxo-1-{4-[5-(2-phenylacetamido)-1,3,4-thiadiazol-2-yl]butyl}-1,2dihydropyrimidin-4-yl)-2-[3-(trifluoromethoxy)phenyl]acetamide] are 100 to 500 nM and less than 100 nM.
On to `CO[C@@H](C(=O)Nc1ccn(CCC(F)Cn2cc(C(=O)NCc3cccc(OC(F)(F)F)c3)nn2)c(=O)c1F)c1ccccc1` (stereo partly drawn) [Example 284, 1-(2-fluoro-4-{3-fluoro-4-[(2R)-2-methoxy-2-phenylacetamido]-2-oxo-1,2-dihydropyridin-1-yl}butyl)-N-{[3-(trifluoromethoxy)phenyl]methyl}-1H-1,2,3-triazole-4-carboxamide], for which the EC50 in the assay with A549 cells is less than 100 nM. The IC50 in assay [1] was less than 100 nM.
Turning to `O=C(Cc1cccc(OC(F)(F)F)c1)Nc1ccn(CCCCn2cc(C(=O)NCc3cccc(F)c3)nn2)c(=O)c1` [Example 66, N-[(3-fluorophenyl)methyl]-1-[4-(2-oxo-4-{2-[3-(trifluoromethoxy)phenyl]acetamido}-1,2-dihydropyridin-1-yl)butyl]-1H-1,2,3-triazole-4-carboxamide], the 50% effective concentration (EC50) with A549 cells was in the range of 500 to 5000 nM. Also, the concentration for half-maximal inhibition (IC50) in assay [1] was less than 100 nM.
For `O=C(CC1CCCC1)Nc1ccn(CCC(F)Cn2cc(C(=O)NCc3cc(C(F)(F)F)ccn3)nn2)c(=O)c1F` (stereo not drawn) [Example 329, 1-{4-[4-(2-cyclopentylacetamido)-3-fluoro-2-oxo-1,2-dihydropyridin-1-yl]-2-fluorobutyl}-N-{[4-(trifluoromethyl)pyridin-2-yl]methyl}-1H-1,2,3-triazole-4-carboxamide] the same measures were less than 100 nM and less than 100 nM.
`Cc1ccc(CNC(=O)c2cn(CCCCn3ccc(NC(=O)OCc4ccccc4)cc3=O)nn2)cn1` [Example 135, benzyl N-{1-[4-(4-{[(6-methylpyridin-3-yl)methyl]carbamoyl}-1H-1,2,3-triazol-1-yl)butyl]-2-oxo-1,2-dihydropyridin-4-yl}carbamate] yielded an EC50 in the assay with A549 cells of 500 to 5000 nM. The concentration for half-maximal inhibition (IC50) in assay [1] was 100 to 500 nM.
Compound `CC(C)(C)COC(=O)Nc1ccn(CCC(F)Cn2cc(C(=O)NCc3cccc(OC(F)(F)F)c3)nn2)c(=O)n1` (stereo not drawn) [Example 493, 2,2-dimethylpropyl N-(1-{3-fluoro-4-[4-({[3-(trifluoro-methoxy)phenyl]methyl}carbamoyl)-1H-1,2,3-triazol-1-yl]butyl}-2-oxo-1,2-dihydropyrimidin-4-yl)carbamate] came in with a half-maximal effective concentration (EC50) in the assay on A549 cells of less than 100 nM. Besides, the IC50 in assay [1] is less than 100 nM.
Consider `O=C(Cc1cccc(OC(F)(F)F)c1)Nc1ccc(CCCCn2ccc(NC(=O)OC3CCOCC3)nc2=O)nn1` [Example 105, oxan-4-yl N-{2-oxo-1-[4-(6-{2-[3-(trifluoromethoxy)phenyl]acetamido}pyridazin-3-yl)butyl]-1,2-dihydropyrimidin-4-yl}carbamate], for which the EC50 in the assay on A549 cells fell in the range of 100 to 500 nM. Moreover, the concentration for half-maximal inhibition (IC50) in assay [1] was less than 100 nM.
